Among the data in US8686010B2, “Aryl- or heteroaryl-sulfonyl compounds as acid secretion inhibitors” (Takeda Pharmaceutical Company Limited, priority 2006, dated 2014) are IC50 values, retold here.

pIC50: −log10 of the molar value. Where a name gives a salt, the structure may show the parent alone.

The target of the assay is T1, H+,K+-ATPase (Sus scrofa, UniProt P19156).
T1 construct: The obtained microsomal fraction was used as a proton, potassium—adenosine triphosphatase standard product; from tissue; host or cells: swine stomach, gastric mucous membrane microsomal fraction
T1 sequence (P19156 2-1034 limits assumed): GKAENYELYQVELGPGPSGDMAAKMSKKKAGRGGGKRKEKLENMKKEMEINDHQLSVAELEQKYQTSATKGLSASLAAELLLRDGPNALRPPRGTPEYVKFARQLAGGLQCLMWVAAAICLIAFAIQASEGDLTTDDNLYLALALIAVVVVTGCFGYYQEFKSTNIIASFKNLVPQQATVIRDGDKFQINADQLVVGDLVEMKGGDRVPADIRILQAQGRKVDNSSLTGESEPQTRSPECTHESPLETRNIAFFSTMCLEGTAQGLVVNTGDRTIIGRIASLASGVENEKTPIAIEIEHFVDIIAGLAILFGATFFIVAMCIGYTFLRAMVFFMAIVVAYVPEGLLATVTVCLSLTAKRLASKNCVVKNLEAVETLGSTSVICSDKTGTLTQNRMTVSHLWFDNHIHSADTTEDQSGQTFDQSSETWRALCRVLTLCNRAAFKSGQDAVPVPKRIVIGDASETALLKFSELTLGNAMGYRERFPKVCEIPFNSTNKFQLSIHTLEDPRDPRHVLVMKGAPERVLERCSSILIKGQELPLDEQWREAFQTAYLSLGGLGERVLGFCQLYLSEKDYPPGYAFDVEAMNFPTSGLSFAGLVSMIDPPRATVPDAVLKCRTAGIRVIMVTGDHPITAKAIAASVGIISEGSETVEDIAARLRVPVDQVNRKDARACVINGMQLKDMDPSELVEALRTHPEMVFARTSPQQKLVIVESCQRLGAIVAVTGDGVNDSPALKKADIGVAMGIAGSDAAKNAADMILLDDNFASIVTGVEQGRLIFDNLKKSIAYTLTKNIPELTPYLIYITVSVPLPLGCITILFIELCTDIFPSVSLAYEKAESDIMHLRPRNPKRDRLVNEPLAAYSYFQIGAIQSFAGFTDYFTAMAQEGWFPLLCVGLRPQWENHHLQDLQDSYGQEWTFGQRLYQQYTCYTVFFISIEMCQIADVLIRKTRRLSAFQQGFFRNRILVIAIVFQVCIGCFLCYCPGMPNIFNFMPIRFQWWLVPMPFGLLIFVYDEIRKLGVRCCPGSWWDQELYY
T1 sequence (P18434 whole entry partner): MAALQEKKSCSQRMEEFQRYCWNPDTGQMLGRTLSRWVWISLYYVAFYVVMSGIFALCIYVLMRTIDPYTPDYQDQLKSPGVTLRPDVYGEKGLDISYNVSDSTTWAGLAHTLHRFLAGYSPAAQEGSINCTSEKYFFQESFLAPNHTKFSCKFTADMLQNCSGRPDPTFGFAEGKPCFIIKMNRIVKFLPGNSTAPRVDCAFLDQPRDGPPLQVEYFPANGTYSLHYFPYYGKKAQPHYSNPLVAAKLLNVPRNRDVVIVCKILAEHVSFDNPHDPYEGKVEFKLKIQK
Put plainly: Proton potassium-adenosine triphosphatase (H+,K+-ATPase) inhibitory activity test. The assay is classed as biochemical. Particulars: gastric mucous membrane microsomal fraction from swine stomach; pH 6.5, 37° C., malachite green colorimetry at 610 nm; read-out: IC50 (50% inhibitory concentration of proton, potassium-adenosine triphosphatase). As to the method:
Proton Potassium—Adenosine Triphosphatase (H^+,K^+-ATPase) Inhibitory Activity Test
According to the method [Biochim. Biophys. Acta, 728, 31 (1983)] of Wallmark et al., a gastric mucous membrane microsomal fraction was prepared from the stomach of swine. First, the stomach was removed, washed with tap water, immersed in 3 mol/L brine, and the surface of the mucous membrane was wiped with a paper towel. The gastric mucous membrane was detached, chopped, and homogenized in a 0.25 mol/L saccharose solution (pH 6.8) containing 1 mmol/L EDTA and 10 mmol/L tris-hydrochloric acid using polytron (Kinematica). The obtained homogenate was centrifuged at 20,000×g for 30 min and the supernatant was centrifuged at 100,000×g for 90 min. The precipitate was suspended in 0.25 mol/L saccharose solution, superimposed on a 0.25 mol/L saccharose solution containing 7.5% Ficoll, and centrifuged at 100,000×g for 5 hr. The fraction containing the interface between the both layers was recovered, and centrifugally washed with 0.25 mol/L saccharose solution.
The obtained microsomal fraction was used as a proton, potassium—adenosine triphosphatase standard product.
To 40 μL of a 50 mmol/L HEPES-tris buffer (5 mmol/L magnesium chloride, 10 mmol/L potassium chloride, 10 μmol/L valinomycin, pH=6.5) containing 2.5 μg/mL (based on the protein concentration) of the enzyme standard product was added a test compound (5 μL) dissolved in a 10% aqueous dimethyl sulfoxide solution, and the mixture was incubated at 37° C. for 30 min. The enzyme reaction was started by adding 5 μL of a 2 mmol/L adenosine triphosphate tris salt solution (50 mmol/L HEPES-tris buffer (5 mmol/L magnesium chloride, pH 6.5)). The enzyme reaction was performed at 37° C. for 20 min, and 15 μL of a malachite green solution (0.12% malachite green solution in sulfuric acid (2.5 mol/L), 7.5% ammonium molybdate and 11% Tween 20 were mixed at a ratio of 100:25:2) was added to quench the reaction. After allowing to stand at room temperature for 15 min, the resulting reaction product of inorganic phosphorus with malachite green was colorimetrically determined at a wavelength of 610 nm. In addition, the amount of the inorganic phosphoric acid in the reaction solution free of potassium chloride was measured in the same manner, which was subtracted from the inorganic phosphoric acid amount in the presence of potassium chloride to determine the proton, potassium—adenosine triphosphatase activity. The inhibitory rate (%) was determined from the activity value of the control activity value and the activity values of various concentrations of the test compound, and the 50% inhibitory concentration (IC50) of the proton, potassium-adenosine triphosphatase was determined.

`CNCc1nc(-c2ccccc2)c(S(=O)(=O)c2ccccc2)s1` [Example 12, N-methyl-1-[4-phenyl-5-(phenylsulfonyl)-1,3-thiazol-2-yl]methanamine hydrochloride]: the pIC50 was 6.77.
The result for `CNCc1cn(S(=O)(=O)c2cccc(OC)c2)c(-c2ccccc2)n1` [Example 7, 1-{1-[(3-methoxyphenyl)sulfonyl]-2-phenyl-1H-imidazol-4-yl}-N-methylmethanamine fumarate] reads 7.52; that for `CNCc1cn(-c2ccccc2)c(S(=O)(=O)c2ccccc2)c1C` [Example 1, N-methyl-1-[4-methyl-1-phenyl-5-(phenylsulfonyl)-1H-pyrrol-3-yl]methanamine hydrochloride], 6.74.
The result for `Cc1ccc(S(=O)(=O)n2cc(CN(C)C)nc2-c2ccccc2)cc1` [Example 5, N,N-dimethyl-1-{1-[(4-methylphenyl)sulfonyl]-2-phenyl-1H-imidazol-4-yl}methanamine 0.5 oxalate] reads 6.80.
